Numbered stars: 1 amine (or outer) side, 2 acyl side, 3 side chain; on linkers, the order of the positions; unused ones are H or OH. Square brackets hold non-standard residues; d marks the D form. Peptide text beside a SMILES is read from it. * marks the point of attachment. ξ: configuration not given here. X2 = C#CCC(OC(=O)*)c1ccc(O[C@@H]2O[C@H](CO)[C@H](O)[C@H](O)[C@H]2O)c2cc(C(=O)O)oc12; X3 = C#CCC(OC(=O)*)c1ccc(O[C@@H]2O[C@H](CO)[C@H](O)[C@H](O)[C@H]2O)c2cc(C(=O)O)sc12; X1 = O=C(O)CCc1cc2c(O[C@@H]3O[C@H](CO)[C@H](O)[C@H](O)[C@H]3O)ccc(COC(=O)*)c2s1; Dil(5ξ) = CCC(C)[C@@H]([C@@H](CC(=O)[*:2])OC)N(C)[*:1]; Dolaproine = CO[C@@H]([C@@H]1CCCN1)[C@@H](C)C(=O)O; NMeV = CN[C@H](C(=O)O)C(C)C; ξF = NC(Cc1ccccc1)C(=O)O
Legend:
[1] = Chemical stability in PBS buffer solution (pH 7.4); format: physicochemical; conditions: PBS buffer solution pH 7.4, 37° C., HPLC; read-out: Chemical stability t1/2
Procedure: The compounds of the present invention (A-5, A-8, A-9, A-11, A-12, A-14, A-15, A-16, A-19, A-23, A-24, A-35 and A-36) were each dissolved in DMSO to a concentration of 10 mM and then mixed with a PBS buffer solution (pH 7.4) to prepare as a solution having a concentration of 500 μM (5% DMSO). MPS, used as a standard substance, was also prepared as a solution having a concentration of 500 μM in a PBS buffer solution. 420 μL of a PBS buffer solution and 140 μL of each of 500 μM compounds of the present invention and MPS were mixed to prepare a total of 700 μL of reaction solution. The reaction of the mixed solution was initiated in a constant temperature incubator at 37° C. The reaction solution was aliquoted in an amount of 70 μL at 0 minutes before the reaction and at certain times after the reaction, and the remaining compounds of the present invention or MPS or the liberated MMAF were quantitatively analyzed using the HPLC method. […] In addition, the remaining amount of Compound A-19 in a PBS buffer solution (pH 7.4) according to the incubation time is shown in FIG. 4.

Human plasma stability = format: in vitro ADME; conditions: Method 2 (human plasma), 37° C., read-out: Plasma stability t1/2
Procedure: Method 2: Human Plasma Stability
(§1) The compounds of the present invention (A-8, A-9, A-14, A-19, A-35, A-36) and MPS, used as a standard substance, were each dissolved in DMSO and a PBS buffer solution to a concentration of 30 mM, and then mixed in human plasma (Biochemed, 752PR—SC-PMG) to a final concentration of 300 μM (final 1.0% DMSO) and 600 μM of the compounds and MPS, respectively. The reaction of the mixed solution in plasma was initiated in a constant temperature incubator at 37° C. Before the reaction and on certain days after the reaction, the above samples were aliquoted in an amount of 100 μL, and 200 μL of ACN was added to terminate the reaction, mixed, and then vortexed for about 1 minute, and then centrifuged at 4° C. for 15 minutes at 14,000 rpm to precipitate plasma proteins. Each supernatant obtained by centrifugation was collected and quantitatively analyzed using the HPLC method.
(§2) The results of measuring the plasma half-life of the compounds of the present invention using Methods 1 to 4 above are shown in Table 3.

Mouse plasma stability = format: in vitro ADME; conditions: Method 1 (mouse plasma), 37° C., read-out: Plasma stability t1/2
Procedure: Method 1: Mouse Plasma Stability
as §1, with “(A-5,” for “(A-8,”, “mouse” for “human”, “029-APSC-PMG)” for “752PR—SC-PMG)”, “acetonitrile (ACN, Sigma, SA-271004-1L)” for “ACN”, “centrifuged (Beckman, B30150)” for “centrifuged”
as §2

[2] = Beagle dog plasma stability; format: in vitro ADME; conditions: Method 4 (beagle dog plasma), 37° C., read-out: Plasma stability t1/2
Procedure: Method 4: Beagle Dog Plasma Stability
as §1, with “(A-19,” for “(A-8, A-9, A-14, A-19, A-35,”, “beagle dog” for “human”, “014-APSC-PMG)” for “752PR—SC-PMG)”
as §2

Rat plasma stability = format: in vitro ADME; conditions: Method 3 (rat plasma), 37° C., read-out: Plasma stability t1/2
Procedure: Method 3: Rat Plasma Stability
as §1, with “(A-19,” for “(A-8, A-9, A-14, A-19, A-35,”, “rat” for “human”, “031-APSC-PMG)” for “752PR—SC-PMG)”
as §2

Structure (SMILES) | half-life at 100 µM [1] [h] | half-life at 300 µM (Human plasma stability) [h] | half-life at 300 µM (Mouse plasma stability) [h] | half-life at 300 µM [2] [h] | half-life at 300 µM (Rat plasma stability) [h]
C#CCC(OC(=O)N(C)[C@H](C(=O)N[C@H](C(=O)N(C)[C@@H](C(C)CC)[C@@H](CC(=O)N1CCC[C@H]1[C@H](OC)[C@@H](C)C(=O)NC(Cc1ccccc1)C(=O)O)OC)C(C)C)C(C)C)c1ccc(O[C@@H]2O[C@H](CO)[C@H](O)[C@H](O)[C@H]2O)c2cc(CCCC(=O)O)oc12 (some centres unmarked) [Compound A-16] | > 168 | – | – | – | –
CCC(C)[C@@H]([C@@H](CC(=O)N1CCC[C@H]1[C@H](OC)[C@@H](C)C(=O)NC(Cc1ccccc1)C(=O)O)OC)N(C)C(=O)[C@@H](NC(=O)[C@H](C(C)C)N(C)C(=O)OCc1ccc(O[C@@H]2O[C@H](CO)[C@H](O)[C@H](O)[C@H]2O)c2cc(Cn3cc(COCCOCCOCCOC)nn3)sc12)C(C)C (some centres unmarked) [Compound A-8] | > 168 | > 168 | – | – | –
C#CCC(OC(=O)N(C)[C@H](C(=O)N[C@H](C(=O)N(C)[C@@H](C(C)CC)[C@@H](CC(=O)N1CCC[C@H]1[C@H](OC)[C@@H](C)C(=O)NC(Cc1ccccc1)C(=O)O)OC)C(C)C)C(C)C)c1ccc(O[C@@H]2O[C@H](CO)[C@H](O)[C@H](O)[C@H]2O)c2cc(COC(=O)N(C)[C@H](C(=O)N[C@H](C(=O)N(C)[C@@H](C(C)CC)[C@@H](CC(=O)N3CCC[C@H]3[C@H](OC)[C@@H](C)C(=O)NC(Cc3ccccc3)C(=O)O)OC)C(C)C)C(C)C)oc12 (some centres unmarked) [Compound A-35] | > 168 | > 168 | > 168 | – | –
C#CCC(OC(=O)N(C)[C@H](C(=O)N[C@H](C(=O)N(C)[C@@H](C(C)CC)[C@@H](CC(=O)N1CCC[C@H]1[C@H](OC)[C@@H](C)C(=O)N[C@H](C)[C@@H](O)c1ccccc1)OC)C(C)C)C(C)C)c1ccc(O[C@@H]2O[C@H](C(=O)O)[C@H](O)[C@H](O)[C@H]2O)c2cc(CCC(=O)O)[se]c12 (some centres unmarked) [Compound A-36] | > 168 | > 168 | > 168 | > 168 | > 168
CCC(C)[C@@H]([C@@H](CC(=O)N1CCC[C@H]1[C@H](OC)[C@@H](C)C(=O)NC(Cc1ccccc1)C(=O)O)OC)N(C)C(=O)[C@@H](NC(=O)[C@H](C(C)C)N(C)C(=O)OCc1cc2c(O[C@@H]3O[C@H](CO)[C@H](O)[C@H](O)[C@H]3O)ccc(COC(=O)N(C)[C@H](C(=O)N[C@H](C(=O)N(C)[C@@H](C(C)CC)[C@@H](CC(=O)N3CCC[C@H]3[C@H](OC)[C@@H](C)C(=O)NC(Cc3ccccc3)C(=O)O)OC)C(C)C)C(C)C)c2o1)C(C)C (some centres unmarked) [Compound A-24] | > 168 | – | – | – | –
CCC(C)[C@@H]([C@@H](CC(=O)N1CCC[C@H]1[C@H](OC)[C@@H](C)C(=O)NC(Cc1ccccc1)C(=O)O)OC)N(C)C(=O)[C@@H](NC(=O)[C@H](C(C)C)N(C)C(=O)OCc1ccc(O[C@@H]2O[C@H](CO)[C@H](O)[C@H](O)[C@H]2O)c2cc(CCC(=O)O)sc12)C(C)C (some centres unmarked) [Compound A-5] (X1-[NMeV]V[Dil(5ξ)][Dolaproine][ξF]-OH) | > 168 | – | > 168 | – | –
C#CCC(OC(=O)N(C)[C@H](C(=O)N[C@H](C(=O)N(C)[C@@H](C(C)CC)[C@@H](CC(=O)N1CCC[C@H]1[C@H](OC)[C@@H](C)C(=O)NC(Cc1ccccc1)C(=O)O)OC)C(C)C)C(C)C)c1ccc(O[C@@H]2O[C@H](CO)[C@H](O)[C@H](O)[C@H]2O)c2cc(C(=O)O)oc12 (some centres unmarked) [Compound A-15] (X2-[NMeV]V[Dil(5ξ)][Dolaproine][ξF]-OH) | > 168 | – | – | – | –
C#CCC(OC(=O)N(C)[C@H](C(=O)N[C@H](C(=O)N(C)[C@@H](C(C)CC)[C@@H](CC(=O)N1CCC[C@H]1[C@H](OC)[C@@H](C)C(=O)NC(Cc1ccccc1)C(=O)O)OC)C(C)C)C(C)C)c1ccc(O[C@@H]2O[C@H](CO)[C@H](O)[C@H](O)[C@H]2O)c2cc(C(=O)O)sc12 (some centres unmarked) [Compound A-11] (X3-[NMeV]V[Dil(5ξ)][Dolaproine][ξF]-OH) | > 168 | – | – | – | –
C#CCC(OC(=O)N(C)[C@H](C(=O)N[C@H](C(=O)N(C)[C@@H](C(C)CC)[C@@H](CC(=O)N1CCC[C@H]1[C@H](OC)[C@@H](C)C(=O)NC(Cc1ccccc1)C(=O)O)OC)C(C)C)C(C)C)c1ccc(O[C@@H]2O[C@H](CO)[C@H](O)[C@H](O)[C@H]2O)c2cc(CCC(=O)O)sc12 (some centres unmarked) [Compound A-12] | > 168 | – | – | – | –

Reference: patent US20260248936A1, “NOVEL LINKER COMPOUND AND LIGAND-DRUG CONJUGATE THEREFOR” (priority 2022, published 2026)
